One test deals with IL-1β. Nature of the test: Inhibition of LPS-stimulated IL-1β in THP-1 cells (ELISA). In kind it is cell-based, human. The conditions noted are these: Homo sapiens, 10 micromolar, read-out: Percent Inhibition of IL1-β. As for the experimental part: Compounds in the present invention were tested in THP-1 cells, a human monocyte cell line, to assess the inhibition of the inflammatory cytokine IL-1β. THP-1 cells (ATCC TIB-202) were grown in culture and seeded in 96 well plates at a concentration of 200,000 cells per well with a total volume of 150 μL. Plated cells were incubated overnight at 37 degrees C. under an atmosphere of 5% CO2. Media was removed from cells which were washed with PBS. Test compounds were diluted in DMSO stock solution and serially diluted appropriately for initial screening and IC50 determinations. LPS in serum free media (140 μL of […]) was added to each well to stimulate IL-1β production. IL-1β was measured by ELISA assay kit (R&D Systems) per the manufacturers instructions.
IC50 values for the inhibition of IL-1 in THP 1 cells were determined from dose response studies.
(An ELISA detects its analyte on a solid surface through an enzyme-linked reagent.)

The target in a further test is T1, Caspase-3 (Homo sapiens, UniProt P42574).
T1 construct: purchased Enzo Biosciences
T1 sequence (P42574 29-175 limits assumed): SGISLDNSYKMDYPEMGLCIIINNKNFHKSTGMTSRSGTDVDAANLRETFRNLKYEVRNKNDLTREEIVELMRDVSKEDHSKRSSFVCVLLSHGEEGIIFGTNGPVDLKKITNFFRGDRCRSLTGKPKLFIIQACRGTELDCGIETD
T1 sequence (P42574 176-277 limits assumed): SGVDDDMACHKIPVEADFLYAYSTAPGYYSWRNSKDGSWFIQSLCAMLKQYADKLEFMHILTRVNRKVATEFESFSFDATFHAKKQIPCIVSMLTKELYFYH
The test is described as follows: Caspase-3 enzymatic inhibition assay, IC50. In kind it is biochemical. The conditions noted are these: read-out: Caspase 3 enzyme inhibition IC50. Put shortly:
(§1)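 Following manufacturer-specified conditions, enzymatic activity of purchased human caspase-3, -6 and -7 was measured with compound present to obtain IC50s.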

The next test concerns the target T2, Caspase 7 (Homo sapiens, UniProt P55210).
T2 construct: purchased Enzo Biosciences
T2 sequence (P55210 24-198 limits assumed): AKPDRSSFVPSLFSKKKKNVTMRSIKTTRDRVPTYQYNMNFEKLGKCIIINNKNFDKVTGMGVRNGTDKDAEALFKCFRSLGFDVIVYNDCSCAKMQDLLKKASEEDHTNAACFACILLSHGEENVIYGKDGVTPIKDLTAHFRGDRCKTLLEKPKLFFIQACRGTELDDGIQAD
T2 sequence (P55210 207-303 limits assumed): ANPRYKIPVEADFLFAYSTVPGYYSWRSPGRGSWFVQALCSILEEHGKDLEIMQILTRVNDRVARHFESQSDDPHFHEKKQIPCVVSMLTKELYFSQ
Nature of the test: Caspase 7 enzymatic inhibition assay, IC50. In kind it is biochemical. The following applies: read-out: Caspase 7 enzyme inhibition IC50. The method, boiled down:
as §1

Another test concerns Jurkat cells. The test is described as follows: Prevention of Fas-induced apoptosis in Jurkat cells (WST-8). The conditions noted are these: Homo sapiens, 10 micromolar, read-out: % Prevention of Fas - induced Jurkat cell apoptosis at 10 micromolar. The format is cell-based. On the procedure:
Compounds of the present invention were evaluated in Jurkat cells, a human T-lymphocyte cell line, to evaluate compounds ability to inhibit apoptotic cell death. Jurkat cells, Clone E6-1 (ATCC TIB-152) were grown in culture maintain a cell density between 0.5-2 million cells/mL. Cells were tested for viability and countion with typan blue stain before use. Test compounds were addedd to 96 well plates and Jurkat cells were added at a concentration of approximately 100,000 cells per well and mixed thoroughly by action of pipetting. Plated cells were incubated for 1 hour at 37 degrees C. under an atmosphere of 5% CO2. Anti-Fas antibody was added and mixed by pipet action. Plates were incubated for 20 hours at 37 degrees C. under an atmosphere of 5% CO2. 10 microliters of thawed WST-8 solution was added to each well and incubated for 4 hours. Absorbance was measured at 450 nm and control reading at […] using a SpectraMax ID5 plate reader. Apoptotic cell death is executed by caspases 3, 7 and 6. Compounds that lack activity against these caspases will not prevent the death of Jurkat cells and is a functional test of selectivity for inflammatory over apoptotic caspases.
IC50 values to protect against Fas induced apoptosis and improve survival of Jurkat cells were determined from dose response studies.
(Tetrazolium dyes change colour on reduction, which living cells bring about.)

In a further test the target is T3, Caspase 6 (Homo sapiens, UniProt P55212).
T3 construct: purchased Enzo Biosciences
T3 sequence (P55212 24-179 limits assumed): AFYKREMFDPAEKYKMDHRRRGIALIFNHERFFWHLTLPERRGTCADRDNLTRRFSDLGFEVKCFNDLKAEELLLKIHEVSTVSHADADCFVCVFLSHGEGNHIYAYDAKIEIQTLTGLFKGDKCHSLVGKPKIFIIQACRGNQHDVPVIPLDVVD
T3 sequence (P55212 194-293 limits assumed): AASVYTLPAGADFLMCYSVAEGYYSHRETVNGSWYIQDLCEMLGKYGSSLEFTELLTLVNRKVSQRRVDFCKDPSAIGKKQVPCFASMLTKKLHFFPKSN
Nature of the test: Caspase 6 enzymatic inhibition assay, IC50. The format is biochemical. The conditions noted are these: read-out: Caspase 6 enzyme inhibition IC50. The method, boiled down:
as §1

The next test deals with T4, Caspase-1 (Homo sapiens, UniProt P29466).
T4 construct: purchased Enzo Biosciences
T4 sequence (P29466 120-297 limits assumed): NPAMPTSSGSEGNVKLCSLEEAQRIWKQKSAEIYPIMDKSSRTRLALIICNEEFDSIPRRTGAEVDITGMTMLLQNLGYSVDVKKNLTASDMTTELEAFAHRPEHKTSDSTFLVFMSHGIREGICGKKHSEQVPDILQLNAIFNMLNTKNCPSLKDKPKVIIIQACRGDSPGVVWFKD
T4 sequence (P29466 317-404 limits assumed): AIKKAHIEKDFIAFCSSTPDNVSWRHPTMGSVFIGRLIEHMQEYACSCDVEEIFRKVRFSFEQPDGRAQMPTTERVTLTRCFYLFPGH
The test is described as follows: Caspase-1 enzyme inhibition assay (Ac-YVAD-pNA substrate), IC50. The format is biochemical. The method, boiled down:
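Buffer was 50 mM HEPES pH 7.4, 100 mM NaCl, 0.1% CHAPS, 1 mM EDTA, 10% glycerol and 10 mM DTT. Caspase-1 was reacted with 200 μM Ac-YVAD-pNA (final). Release of p-nitroaniline was followed continuously at 405 nm, and rates were taken from the linear slope (ε 10,500 M-1 cm-1).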

Usually IC50 stands for the concentration needed to halve the response being measured. As for `CC(C)(NC(=O)C(=O)Nc1c(F)cccc1F)C(=O)N[C@@H](CCC(=O)O)C(=O)COc1c(F)c(F)cc(F)c1F` [Example 12, (S)-4-(2-(2-((2,6-Difluorophenyl)amino)-2-oxoacetamido)-2-methylpropanamido)-5-oxo-6-(2,3,5,6-tetrafluorophenoxy)hexanoic acid], the results for the inhibition at 10 µM with IL-1β and in the test on Jurkat cells were above 90% and at most 10%, respectively. Also, the IC50 was at least 1 µM on Caspase-3, at least 1 µM at Caspase 7, at least 1 µM at Caspase 6 and at most 0.01 µM against Caspase-1.

On to `C[C@H](NC(=O)C(=O)Nc1c(F)cccc1F)C(=O)N[C@@H](CCCC(=O)O)C(=O)COc1c(F)c(F)cc(F)c1F` [Example 13, (S)-5-((S)-2-(2-((2,6-Difluorophenyl)amino)-2-oxoacetamido)propanamido)-6-oxo-7-(2,3,5,6-tetrafluorophenoxy)heptanoic acid], for which the inhibition at 10 µM is 50 to 90% in the test with IL-1β and at most 10% in the test with Jurkat cells. The IC50 at Caspase-3 is at least 1 µM; at Caspase 7, at least 1 µM; at Caspase 6, at least 1 µM; against Caspase-1 it was 0.01 to 0.1 µM.

Take `O=C(O)CC[C@H](NC(=O)C1(NC(=O)C(=O)Nc2c(F)cccc2F)CCCC1)C(=O)COc1c(F)c(F)cc(F)c1F` [Example 14, (S)-4-(1-(2-((2,6-Difluorophenyl)amino)-2-oxoacetamido)cyclopentane-1-carboxamido)-5-oxo-6-(2,3,5,6-tetrafluorophenoxy)hexanoic acid]: the inhibition at 10 µM in the test with IL-1β is above 90%; in the test on Jurkat cells it was at most 10%. For the same molecule, the IC50 at Caspase-3 is 0.1 to 1 µM; on Caspase 7, 0.1 to 1 µM; at Caspase 6, 0.1 to 1 µM; against Caspase-1, at most 0.01 µM.

Take `C[C@H](NC(=O)C(=O)Nc1c(F)cccc1F)C(=O)N[C@@H](CCC(=O)O)C(=O)COc1ccnc(C(F)(F)F)n1` [Example 15, (S)-4-((S)-2-(2-((2,6-Difluorophenyl)amino)-2-oxoacetamido)propanamido)-5-oxo-6-((2-(trifluoromethyl)pyrimidin-4-yl)oxy)hexanoic acid]: the inhibition at 10 µM in the test on IL-1β is above 90%; with Jurkat cells, at most 10%. Besides, the IC50 at Caspase-3 was at least 1 µM; on Caspase 7 it was at least 1 µM; on Caspase 6, at least 1 µM; at Caspase-1, at most 0.01 µM.

For `O=C(O)CC[C@H](NC(=O)Cn1ccc2ccc(Cl)cc2c1=O)C(=O)COc1c(F)c(F)cc(F)c1F` [Example 16, (S)-4-(2-(7-Chloro-1-oxoisoquinolin-2(1H)-yl)acetamido)-5-oxo-6-(2,3,5,6-tetrafluorophenoxy)hexanoic acid], the values for the inhibition at 10 µM in the test with IL-1β and in the test with Jurkat cells were above 90% and at most 10%, respectively. The IC50 at Caspase-3 was at least 1 µM; on Caspase 7 it was at least 1 µM; at Caspase 6, at least 1 µM; at Caspase-1, at most 0.01 µM.

Regarding `C[C@H](NC(=O)C(=O)Nc1ccc(F)cc1)C(=O)N[C@@H](CCC(=O)O)C(=O)COc1c(F)c(F)cc(F)c1F` [Example 17, (S)-4-((S)-2-(2-((4-fluorophenyl)amino)-2-oxoacetamido)propanamido)-5-oxo-6-(2,3,5,6-tetrafluorophenoxy)hexanoic acid], the inhibition at 10 µM in the test on IL-1β was above 90%; in the test with Jurkat cells, at most 10%. The IC50 on Caspase-3 was at least 1 µM; at Caspase 7, at least 1 µM; on Caspase 6 it was at least 1 µM; against Caspase-1, at most 0.01 µM.

Consider `C[C@H](NC(=O)C(=O)Nc1cccc(F)c1)C(=O)N[C@@H](CCC(=O)O)C(=O)COc1c(F)c(F)cc(F)c1F` [Example 18, (S)-4-((S)-2-(2-((3fluorophenyl)amino)-2-oxoacetamido)propanamido)-5-oxo-6-(2,3,5,6-tetrafluorophenoxy)hexanoic acid], for which the inhibition at 10 µM in the test with IL-1β was above 90%; in the test with Jurkat cells, at most 10%. Further, the IC50 was at least 1 µM at Caspase-3, at least 1 µM on Caspase 7, at least 1 µM on Caspase 6 and at most 0.01 µM on Caspase-1.

For `Cc1ccc(NC(=O)C(=O)N[C@@H](C)C(=O)N[C@@H](CCC(=O)O)C(=O)COc2c(F)c(F)cc(F)c2F)cc1` [Example 19, (S)-4-((S)-2-(2-((4-methylphenyl)amino)-2-oxoacetamido)propanamido)-5-oxo-6-(2,3,5,6-tetrafluorophenoxy)hexanoic acid], the figures for the inhibition at 10 µM with IL-1β and with Jurkat cells were above 90% and at most 10%, respectively. The IC50 on Caspase-3 is at least 1 µM; on Caspase 7, at least 1 µM; at Caspase 6, at least 1 µM; at Caspase-1, at most 0.01 µM.

For `Cc1cccc(NC(=O)C(=O)N[C@@H](C)C(=O)N[C@@H](CCC(=O)O)C(=O)COc2c(F)c(F)cc(F)c2F)c1` [Example 20, (S)-4-((S)-2-(2-((3-methylphenyl)amino)-2-oxoacetamido)propanamido)-5-oxo-6-(2,3,5,6-tetrafluorophenoxy)hexanoic acid], the inhibition at 10 µM in the test on IL-1β is above 90%; in the test on Jurkat cells, at most 10%. Besides, the IC50 on Caspase-3 is at least 1 µM; on Caspase 7, at least 1 µM; at Caspase 6, at least 1 µM; against Caspase-1 it was at most 0.01 µM.

The values are drawn from patent publication US11597703B2, “Caspase inhibitors and methods of use thereof” (Histogen Inc., priority 2019, dated 2023).
